Patent US7576101B2, “Composition for and treatment of demyelinating diseases and paralysis by administration of remyelinating agents” (Elan Pharmaceuticals, Inc., priority 2003, dated 2009)

Key:
[1] = system: guinea pig model of CP-EAE; assay: Remyelination and functional recovery in guinea pig model of CP-EAE; assay type: in vivo
Source text: The number of lesions showing myelin pallor was divided by the total number of lesions within cross sections of spinal cord taken throughout its length from each animal (FIG. 10) (for the method see Warrington et al., 2000, Proc. Nat'l Acad. Sci. USA 97: 6820-5). […] In contrast, after 20 days of N-[N-(3-pyridinesulfonyl)-L-3,3-dimethyl-4-thiaprolyl]-O-[1-methylpiperazin-4-ylcarbonyl]-L-tyrosine isopropyl ester administration, the frequency of shadow plaques in the spinal cord was increased over saline-treated animals, reaching 68%; after 30 and 40 days, the incidence was 77% and 87%, respectively (p<0.001, 2-way ANOVA with Tukey test).
The overall degree of plaque remyelination in the spinal cord was also measured. […] Total lesion area was determined for each animal by tracing all lesions within all spinal cord sections and summing the areas. Likewise, the total area of remyelination was measured by tracing regions of myelin pallor. FIGS. 10C-F plot the total lesion area against the percentage of remyelination. In saline-treated animals, lesions rarely show any evidence of repair, with means ranging between 2 and 11%, and there were no significant differences over the 40-day treatment period (FIGS. 10C-F). In contrast, after 20, 30 or 40 days of N-[N-(3-pyridinesulfonyl)-L-3,3-dimethyl-4-thiaprolyl]-O-[1-methylpiperazin-4-ylcarbonyl]-L-tyrosine isopropyl ester treatment, the majority of lesions identified show a variable degree of remyelination ranged from 2 to 100% in the majority of lesions (mean area of remyelination approximately 50%) (FIGS. 10D-5). (p<0.001, 2-way ANOVA with Tukey test). Therefore while lesions were evident in all animals throughout the 40-day treatment period, N-[N-(3-pyridinesulfonyl)-L-3,3-dimethyl-4-thiaprolyl]-O-[1-methylpiperazin-4-ylcarbonyl]-L-tyrosine isopropyl ester increased the incidence and percentage of remyelination. Furthermore, evidence of remyelination in N-[N-(3-pyridinesulfonyl)-L-3,3-dimethyl-4-thiaprolyl]-O-[1-methylpiperazin-4-ylcarbonyl]-L-tyrosine isopropyl ester-treated animals is consistent with an observed regain of motor function. The starting point for treatment was a clinical score of 2, which denotes full bilateral hind limb paralysis. […] Functional recovery was never observed in control animals.

[2] = system: demyelinated spinal cord lesions in chronic EAE of female Hartley guinea pigs; assay: Spontaneous remyelination in chronic EAE guinea pigs (solochrome-R-cyanin, toluidine blue semithin sections, EM, lesion area analysis); assay type: in vivo, guinea pig; conditions: for area of thinly myelinated axons in toluidine blue semithin sections vs saline / electron microscopy of lesioned spinal cord: day 30 of treatment
[3] = system: experimental allergic encephalomyelitis in female Hartley guinea pigs; assay: Chronic EAE in guinea pigs: mean cell counts in spinal cord (H-E sections); assay type: in vivo, guinea pig; conditions: for cell number in spinal cord vs saline-treated animals: after 10, 20, 30 or 40 days of therapy, p<0.001 two-way ANOVA; for mean cell count in spinal cord 10 days after removal vs continuous treatment: p<0.05 ANOVA on ranks with SNK test
Experimental: To quantify the abnormalities observed in the spinal cord, sections stained with H-E were divided into 12 representative pie-shaped areas. In each area, the number of cells within a 0.12 mm^2 field of view was counted using Sigma Scan Pro image analysis software (SPSS Inc.), and the combined mean number of cells in all 12 areas was calculated for the whole spinal cord (36 fields of view per animal). Note that as all cell nuclei were counted, the number of cells may include neurons and glial cells in addition to infiltrates.
Statistical Analysis. Statistical analysis was performed using SigmaStat v2 software (SPSS Inc.). Clinical scores were assessed using the Mann Whitney rank sum test, while pathological scores were assessed with a two-Way ANOVA. Quantitative abnormalities were compared using Kruskal-Wallis ANOVA on ranks. In each case, p<0.05 was considered significant. A linear regression was performed on the mean cell counts in the spinal cord.

[4] = listed as N-[N-(3-pyridinesulfonyl)-L-3,3-dimethyl-4-thiaprolyl]-O-[1-methylpiperzain-4-yl

Q: What does the source list for CC(C)OC(=O)[C@H](Cc1ccc(OC(=O)N2CCN(C)CC2)cc1)NC(=O)[C@H]1N(S(=O)(=O)c2cccnc2)CSC1(C)C [N-[N-(3-pyridinesulfonyl)-L-3,3-dimethyl-4-thiaprolyl]-O-[1-methylpiperazin-4-ylcarbonyl]-L-tyrosine isopropyl ester]?
A: percentage of plaques exhibiting remyelination (frequency of shadow plaques in the spinal cord) ([1]; after 20 days of administration): 68%; percentage of plaques exhibiting remyelination (incidence) ([1]; after 30 days of administration): 77%; percentage of plaques exhibiting remyelination (incidence) ([1]; after 40 days of administration): 87%; treated animals in which paralysis was reversed to a clinical score of 1 ([1]; starting clinical score of 2 (full bilateral hind limb paralysis)): 50%; incidence of remyelination (lesions showing myelin pallor as percent of all lesions) vs saline ([2]; 10-40 days, time-dependent): increased the incidence of remyelination; appearance of spinal cord lesions after 10 days of treatment (solochrome-R-cyanin) ([2]; 10 days): minimal evidence of myelin pallor; appearance of spinal cord lesions after 20 days of therapy (solochrome-R-cyanin) [2]: many lesions exhibited diffuse pale blue staining; appearance of spinal cord lesions after 20 days of therapy (solochrome-R-cyanin) [2, 4]: diffuse blue stain covering the plaque; appearance of spinal cord lesions after 40 days of therapy (solochrome-R-cyanin) [2]: presented as shadow plaques; appearance of spinal cord lesions after 40 days of therapy (solochrome-R-cyanin) [2, 4]: majority of lesions showed clear myelin pallor; area of remyelination as percent of total lesion area ([2]; after 20, 30 or 40 days of therapy): 50%; degree of remyelination of individual lesions ([2]; after 20, 30 or 40 days of treatment): 0-100%; area of thinly myelinated axons in toluidine blue semithin sections vs saline [2]: greatly expanded; electron microscopy of lesioned spinal cord [2]: multiple thin myelin layers around large caliber axons; area of thinly myelinated axons in toluidine blue semithin sections vs saline [2, 4]: more extensive; electron microscopy of lesioned spinal cord [2, 4]: multiple layers of thin myelin wrappings around large diameter axons; animals that regained motor function ([2]; paralyzed guinea pigs (clinical score 2) treated up to 40 days): 50%; cell number in spinal cord vs saline-treated animals [3]: significant reduction; cell number in spinal cord vs saline-treated animals [3, 4]: fewer cells; mean cell counts in spinal cord vs chronic control (d40) EAE animals ([3]; after 20, 30 or 40 days of treatment, p<0.05): significantly lower; mean cell count in spinal cord vs non-EAE animals ([3]; after 40 days of treatment): not different; mean cell count in spinal cord 10 days after removal vs continuous treatment [3]: significant increase; mean cell count in spinal cord 10 days after removal vs continuous treatment [3, 4]: significantly increased; rate of cell loss in spinal cord ([3]; slope of linear regression of mean cell counts (r^2=0.90)): 8 cells/mm^2/day
